In the supplement of paper PMC10307832:

What was measured:
Assay in all cases: relative viability (nuclei count vs DMSO), 5 days (fraction); higher = more cells survive
Carboplatin + Pictilisib = compound: C1CC(C1)(C(=O)O)C(=O)O.[NH2-].[NH2-].[Pt+2] [Carboplatin] + CS(=O)(=O)N1CCN(Cc2cc3nc(-c4cccc5[nH]ncc45)nc(N4CCOCC4)c3s2)CC1 [Pictilisib] (partner 1 µM)
Method in brief: (§1)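 Five library-drug doses in √10 steps were combined with a fixed anchor-drug dose, or a single drug was given alone, by pin tool to lung cancer cell lines in 1536-well plates the day after seeding. Nuclei were stained and counted after 5 days. Relative viability is the nuclei count in treated wells over that in vehicle wells, taken as the median of duplicate plates.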

Carboplatin + Decitabine = compound: C1CC(C1)(C(=O)O)C(=O)O.[NH2-].[NH2-].[Pt+2] [Carboplatin] + Nc1ncn([C@H]2C[C@H](O)[C@@H](CO)O2)c(=O)n1 [Decitabine] (partner 2 µM)
Method in brief: as §1

GSK126 + Pictilisib = compound: CC[C@H](C)N1C=C(C2=C(C=C(C=C21)C3=CN=C(C=C3)N4CCNCC4)C(=O)NCC5=C(C=C(NC5=O)C)C)C [GSK126] + CS(=O)(=O)N1CCN(Cc2cc3nc(-c4cccc5[nH]ncc45)nc(N4CCOCC4)c3s2)CC1 [Pictilisib] (partner 1 µM)
Method in brief: as §1

MLN4924 + Pictilisib = compound: NS(=O)(=O)OC[C@@H]1C[C@@H](n2ccc3c(N[C@H]4CCc5ccccc54)ncnc32)C[C@@H]1O [MLN4924] + CS(=O)(=O)N1CCN(Cc2cc3nc(-c4cccc5[nH]ncc45)nc(N4CCOCC4)c3s2)CC1 [Pictilisib] (partner 1 µM)
Method in brief: as §1

Cell Line	relative viability (Carboplatin + Pictilisib; first compound 0.08 µM)	relative viability (Carboplatin + Pictilisib; first compound 0.253 µM)	relative viability (Carboplatin + Pictilisib; first compound 0.8 µM)	relative viability (Carboplatin + Pictilisib; first compound 2.53 µM)	relative viability (Carboplatin + Pictilisib; first compound 8 µM)	relative viability (Carboplatin + Decitabine; first compound 0.08 µM)	relative viability (Carboplatin + Decitabine; first compound 0.253 µM)	relative viability (Carboplatin + Decitabine; first compound 0.8 µM)	relative viability (Carboplatin + Decitabine; first compound 2.53 µM)	relative viability (Carboplatin + Decitabine; first compound 8 µM)	relative viability (GSK126 + Pictilisib; first compound 0.08 µM)	relative viability (GSK126 + Pictilisib; first compound 0.253 µM)	relative viability (GSK126 + Pictilisib; first compound 0.8 µM)	relative viability (GSK126 + Pictilisib; first compound 2.53 µM)	relative viability (GSK126 + Pictilisib; first compound 8 µM)	relative viability (MLN4924 + Pictilisib; first compound 0.04 µM)	relative viability (MLN4924 + Pictilisib; first compound 0.1265 µM)	relative viability (MLN4924 + Pictilisib; first compound 0.4 µM)	relative viability (MLN4924 + Pictilisib; first compound 1.265 µM)	relative viability (MLN4924 + Pictilisib; first compound 4 µM)
NCI-H2405	0.588	0.405	0.472	0.45	0.428	0.705	0.784	0.809	0.659	0.442	0.427	0.385	0.437	0.452	0.397	0.452	0.73	0.505	0.246	0.254
SK-MES-1	0.402	0.272	0.358	0.328	0.303	0.419	0.415	0.345	0.341	0.341	0.386	0.322	0.329	0.357	0.392	0.425	0.535	0.356	0.174	0.198
NCI-H2170	0.361	0.266	0.357	0.33	0.283	0.507	0.476	0.465	0.428	0.343	0.333	0.281	0.35	0.322	0.346	0.36	0.37	0.217	0.135	0.171
NCI-H322M	0.567	0.465	0.507	0.542	0.521	0.74	0.723	0.711	0.763	0.62	0.431	0.517	0.507	0.509	0.454	0.556	0.855	0.669	0.291	0.333
NCI-H2085	0.525	0.502	0.477	0.458	0.399	0.548	0.57	0.506	0.544	0.474	0.484	0.358	0.369	0.485	0.49	0.479	0.719	0.594	0.457	0.42
PC-3 [JPC-3]	0.912	0.684	0.761	0.701	0.706	0.835	0.75	0.795	0.734	0.7	0.808	0.795	0.814	0.781	0.762	0.904	0.817	0.334	0.251	0.313
NCI-H1355	0.394	0.537	0.461	0.431	0.454	0.337	0.379	0.329	0.333	0.28	0.476	0.531	0.447	0.499	0.447	0.332	0.421	0.273	0.182	0.176
NCI-H1650	0.741	0.651	0.563	0.519	0.416	0.426	0.498	0.425	0.365	0.308	0.568	0.596	0.566	0.794	0.556	0.373	0.245	0.182	0.124	0.183
NCI-H838	0.476	0.391	0.469	0.454	0.485	0.479	0.492	0.425	0.412	0.386	0.507	0.35	0.403	0.426	0.369	0.365	0.236	0.253	0.138	0.189
NCI-H1755	0.432	0.442	0.407	0.417	0.391	0.702	0.674	0.737	0.668	0.607	0.512	0.451	0.459	0.46	0.384	0.221	0.358	0.287	0.134	0.139
NCI-H1651	0.681	0.498	0.644	0.452	0.411	0.773	0.633	0.589	0.574	0.509	0.55	0.548	0.601	0.608	0.584	0.706	0.514	0.45	0.0787	0.115
NCI-H650	0.948	1.03	0.826	0.791	0.562	0.308	0.329	0.344	0.328	0.246	1.02	0.781	0.884	0.884	0.801	0.79	0.508	0.335	0.208	0.214
LK-2	0.707	0.643	0.462	0.401	0.613	0.287	0.33	0.279	0.289	0.335	0.772	0.54	0.637	0.658	0.486	0.511	0.503	0.566	0.254	0.262
HCC-366	0.138	0.128	0.0961	0.158	0.106	0.322	0.32	0.336	0.251	0.203	0.132	0.138	0.13	0.0968	0.126	0.232	0.496	0.326	0.102	0.0407
